Test results: PubChem BioAssay (NCI)
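Exposure lasted 48 hours, with cells grown in 96-well plates and compounds tested at five concentrations. TGI denotes the concentration required for complete inhibition of growth.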

These compounds were tested on IGROV1 ovarian (assay: DTP human tumour cell line panel, 48 h).

SMILES	TGI [µM]
NN/C(=N\S(=O)(=O)c1ccc(S(=O)(=O)c2ccccc2)s1)Nc1ccc(Cl)cc1	88.7
CC(C)(C)[Si](C)(C)OC[C@H](/C=C\CCCC(=O)O)NC1(c2ccccc2)c2ccccc2-c2ccccc21	97
CCOC(=O)C(C/C=C/CO)N(C)C(=O)OC(C)(C)C (stereo not given)	> 100
Cc1csc(-n2c(C)nc3cc(Cl)ccc3c2=O)n1	> 100

What follows are compounds tested on RPMI-8226 leukemia (assay: DTP human tumour cell line panel, 48 h).

SMILES	TGI [µM]
COCCN1C(=O)C2c3[nH]c4ccccc4c3C3CCC(C(C)(C)C)CC3C2C1=O (stereo not given)	39.5
O=C(O)c1ccc(N/C(=C(/C(Cl)=C(Cl)Cl)[N+](=O)[O-])n2nnc3ccccc32)cc1	> 100
O=c1c2ccccc2nc(-c2ccccc2)n1NC(=S)Nc1cccc(Cl)c1	> 100
COC(=O)c1cc(/C=C\c2cc(OC)ccc2OC)ccc1OC	44.5
Cc1ccc(S(=NS(=O)(=O)c2ccc(C)cc2)c2ccc(C)cc2)cc1	> 100
CCOC(=O)C(C(=O)COC(C)(C)C)[C@@H]1C=C[C@H](OC(C)=O)C1 (stereo not given in full)	> 100
CCOC(=O)CC(NC(=O)c1ccc(N=NN(C)C)cc1)C(=O)OCC (stereo not given)	> 100
CN(C)CN(C)c1nc(N(C)C)nc(N(C)CN(C)C)n1	67.2
O=C(Cc1ccccc1)NN1C(=O)/C(=C\c2ccccc2O)SC1=Nc1ccccc1	> 100
O=c1[nH]nc(-c2ccccc2)n1-n1cnnc1	> 100
CCCCCCCCCCCCOP(=O)(O)OP(=O)(O)OCC1OC(n2cc(C)c(=O)[nH]c2=O)CC1O (stereo not given)	> 100
O=C1c2cc([N+](=O)[O-])sc2C(=O)c2c([N+](=O)[O-])csc21	0.934
CC(C)[Si](OCC1CC(C#N)OC(C)(C)O1)(C(C)C)C(C)C (stereo not given)	33.8
CC(C)C(NC(=O)C(Cc1ccccc1)NC(=O)[C@H]1CCC[C@H]1NC(=O)C(Cc1ccc(OC(C)(C)C)cc1)NC(=O)OC(C)(C)C)C(N)=O (stereo not given in full)	> 100
N#C/C(=C\c1ccc2[nH]ccc2c1)C(=O)c1ccc(O)c(O)c1	> 100
CC(=O)Nc1ccc(-c2nnc(SCC(=O)Nc3ccc(Cl)cc3)o2)cc1	> 100
COc1ccc2c([nH]c3c(O)c(-c4c(C)cc5c([nH]c6c(CC=C(C)C)c(OC)ccc65)c4O)c(C)cc32)c1CC=C(C)C	> 100
COc1ccc(CNc2nc3ccccc3nc2C(=O)O)cc1	68.2
COc1ccc(-n2cnc3c(NC(Cc4ccccc4)C(=O)O)ncnc32)cc1 (stereo not given)	> 100
CC(=O)OCC1OC(n2c(-c3ccccc3)c(N=Nc3ccc(C)cc3)c(C)c(C#N)c2=S)C(OC(C)=O)C(OC(C)=O)C1OC(C)=O (stereo not given)	> 100
NN/C(=N\S(=O)(=O)c1ccc(S(=O)(=O)c2ccccc2)s1)Nc1ccc(Cl)cc1	> 100
CC(C)(C)[Si](C)(C)OC[C@H](/C=C\CCCC(=O)O)NC1(c2ccccc2)c2ccccc2-c2ccccc21	23.3
CCOC(=O)C(C/C=C/CO)N(C)C(=O)OC(C)(C)C (stereo not given)	> 100

These compounds were tested on HOP-62 NSCLC (assay: DTP human tumour cell line panel, 48 h).

SMILES	TGI [µM]
COCCN1C(=O)C2c3[nH]c4ccccc4c3C3CCC(C(C)(C)C)CC3C2C1=O (stereo not given)	37.4
O=C(O)c1ccc(N/C(=C(/C(Cl)=C(Cl)Cl)[N+](=O)[O-])n2nnc3ccccc32)cc1	> 100
O=c1c2ccccc2nc(-c2ccccc2)n1NC(=S)Nc1cccc(Cl)c1	> 100
CCn1c2ccccc2c2cc(Nc3cc(C)[nH]c(=O)n3)ccc21	> 100
C(#Cc1ccccc1)SC1=C(c2ccccc2)S/C(=C(\SC#Cc2ccccc2)c2ccccc2)S1	> 100
COC(=O)c1cc(/C=C\c2cc(OC)ccc2OC)ccc1OC	77.1
Cc1ccc(S(=NS(=O)(=O)c2ccc(C)cc2)c2ccc(C)cc2)cc1	> 100
CCOC(=O)C(C(=O)COC(C)(C)C)[C@@H]1C=C[C@H](OC(C)=O)C1 (stereo not given in full)	> 100
CCOC(=O)CC(NC(=O)c1ccc(N=NN(C)C)cc1)C(=O)OCC (stereo not given)	> 100
CN(C)CN(C)c1nc(N(C)C)nc(N(C)CN(C)C)n1	> 100
O=C(Cc1ccccc1)NN1C(=O)/C(=C\c2ccccc2O)SC1=Nc1ccccc1	> 100
O=c1[nH]nc(-c2ccccc2)n1-n1cnnc1	> 100
CCCCCCCCCCCCOP(=O)(O)OP(=O)(O)OCC1OC(n2cc(C)c(=O)[nH]c2=O)CC1O (stereo not given)	> 100
CCOc1cc2c(cc1O)C(N)C[C@@H]1[C@@H]2CC[C@]2(C)[C@@H](O)CC[C@@H]12 (stereo not given in full)	> 100
Cc1ccc(S(=O)(=O)Nn2c(O)c(C#N)c(-c3ccc([N+](=O)[O-])cc3)c(C#N)c2=O)cc1	> 100
CC(C)[Si](OCC1CC(C#N)OC(C)(C)O1)(C(C)C)C(C)C (stereo not given)	44.3
CC(C)C(NC(=O)C(Cc1ccccc1)NC(=O)[C@H]1CCC[C@H]1NC(=O)C(Cc1ccc(OC(C)(C)C)cc1)NC(=O)OC(C)(C)C)C(N)=O (stereo not given in full)	32.5
N#C/C(=C\c1ccc2[nH]ccc2c1)C(=O)c1ccc(O)c(O)c1	> 100
CC(=O)Nc1ccc(-c2nnc(SCC(=O)Nc3ccc(Cl)cc3)o2)cc1	39.7
COc1ccc2c([nH]c3c(O)c(-c4c(C)cc5c([nH]c6c(CC=C(C)C)c(OC)ccc65)c4O)c(C)cc32)c1CC=C(C)C	> 100
COc1ccc(CNc2nc3ccccc3nc2C(=O)O)cc1	> 100
COc1ccc(-n2cnc3c(NC(Cc4ccccc4)C(=O)O)ncnc32)cc1 (stereo not given)	> 100
CC(=O)OCC1OC(n2c(-c3ccccc3)c(N=Nc3ccc(C)cc3)c(C)c(C#N)c2=S)C(OC(C)=O)C(OC(C)=O)C1OC(C)=O (stereo not given)	50.1
CC(C)(C)C1=C(Br)C(OC(=O)C(F)(F)F)(C(C)(C)C)OP1(=O)c1ccccc1 (stereo not given)	76.8
NN/C(=N\S(=O)(=O)c1ccc(S(=O)(=O)c2ccccc2)s1)Nc1ccc(Cl)cc1	> 100
CC(C)(C)[Si](C)(C)OC[C@H](/C=C\CCCC(=O)O)NC1(c2ccccc2)c2ccccc2-c2ccccc21	42.3
CCOC(=O)C(C/C=C/CO)N(C)C(=O)OC(C)(C)C (stereo not given)	> 100
Cc1csc(-n2c(C)nc3cc(Cl)ccc3c2=O)n1	> 100
